Experiments:
[1] = test system: 5-hydroxytryptamine-induced constriction; assay: Inhibition of 5-hydroxytryptamine induced bronchoconstriction in the anaesthetised, artificially respired guinea pig (Konzett-Rossler preparation); assay type: in vivo; conditions: Cavia porcellus, iv, read-out: ID50 against 5-hydroxytryptamine-induced constriction
Experimental: (§1) 1. The compounds were examined for their ability to inhibit 5-hydroxytryptamine or histamine induced bronchoconstriction in the anaesthetised, artificially respired guinea pig (Konzett-Rossler preparation). The compounds were administered intravenously.

[2] = test system: platelet aggregation induced by collagen in human platelet rich plasma; assay: Inhibition of collagen-induced platelet aggregation in vitro in human platelet rich plasma; assay type: cell-based; conditions: for inhibition at 100 µM: collagen-induced
From the text: The compounds were examined for their ability to inhibit platelet aggregation induced in vitro by collagen in human platelet rich plasma.

[3] = test system: bronchoconstriction induced by an histamine aerosol; assay: Protection of conscious guinea pigs against bronchoconstriction induced by an histamine aerosol (Herxheimer test); assay type: in vivo, guinea pig; set-up: key to Aerosol route Activity (class symbol) / Oral route Activity (class symbol): A: active; conditions: mean of several experiments; for minimal effective dose: Cavia porcellus, read-out: Oral route Activity: dose at which active; for minimal effective dose / Oral route Activity (class symbol): oral route
Experimental: 2. the compounds were also examined for their ability to protect conscious guinea pigs against bronchoconstriction induced by an histamine aerosol (Herxheimer test). In these experiments the compounds were administered by aerosol or by oral administration. The results are shown in Table B. The results are the mean of several experiments.

[4] = test system: indomethacin induced gastric damage; assay: Anti-ulcer activity: inhibition of indomethacin induced gastric damage in the rat; assay type: in vivo; conditions: 100 mg/kg orally, 30 minutes prior to 15 mg/kg indomethacin s.c., groups of 7 rats, score scale 1-9
Experimental: Anti-ulcer activity was assessed by the inhibition of indomethacin induced gastric damage in the rat according to the method of Eleghe (1974) Israeli J. Med. Sci. 10. 1451. Rats were starved overnight given 15 mg/kg indomethacin subcutaneously and sacrificed 4 hours later. Stomachs were reflated with n.saline, cut along the greater curvature pinned out and scored for gastric damage by the following system:
Score 1-3--according to degree of erythema and slight haemorrhage.
Score 4-6--according to degree of mucosal erosion.
Score 7-9--according to depth of gastric damage.
Groups of 7 rats were used for each treatment and the test compound or vehicle were administered 30 minutes prior to giving the indomethacin. Dose of test compound was 100 mg/kg orally and control groups receiving vehicle only were set up simultaneously. Mean values for each treatment were obtained using the above scoring system and the Mann Witney test applied for significance of difference between the values obtained with the treatments.

in vivo = assay: in vivo; set-up: species or system mice; conditions: mouse
Experimental: For example, Compound 17 was not toxic in mice at doses up to 300 mg/kg, orally, or at doses up to 100 mg/kg, intraperitoneally, whereas Compound 21 was not toxic at doses up to 900 mg/kg, orally, in mice.

[5] = test system: histamine-induced bronchoconstriction; assay: Inhibition of histamine induced bronchoconstriction in the anaesthetised, artificially respired guinea pig (Konzett-Rossler preparation); assay type: in vivo; conditions: Cavia porcellus, iv, read-out: ID50 against histamine-induced constriction
Experimental: as §1

[6] = test system: pentagastrin-stimulated gastric acid secretion; assay: Inhibition of pentagastrin-stimulated gastric acid secretion in the anaesthetised, perfused rat stomach preparation (Ghosh and Schild preparation); assay type: in vivo; conditions: i.v.
Experimental: The compounds were examined for their ability to inhibit pentagastrin-stimulated gastric acid secretion in the anaesthetised, perfused rat stomach preparation (Ghosh and Schild preparation). The compounds were administered intra-venously.

[7] = test system: heart fibrillation induced by chloroform; assay: Anti-arrythmic activity: prevention of heart fibrillation in mice exposed to chloroform; assay type: in vivo; conditions: 100 mg/kg intraperitoneally, group of 3 mice
From the text: The compounds were examined for anti-arrythmic activity by determining their ability to prevent heart fibrillation in mice exposed to chloroform.

SMILES | ED50 [1] [µg/kg] | Aerosol route Activity (class symbol) [3] | further results
CCCCCCC(C)(O)CCN1C(=O)N(C)C(=O)C1CCCCCCC(=O)OC (centres unmarked) [Compound 6] | 1.5 | – | –
CN1C(=O)C(CCCCCCC(=O)O)N(CCC2(O)CCCCC2)C1=O (centres unmarked) [Compound 19] | > 220 | – | –
CCC(C)(O)CCN1C(=O)N(C)C(=O)C1CCCCCCC(=O)O (centres unmarked) [Compound 18] | – | – | inhibition at 100 µM [2]: 100%; IC50 ([2]; in vitro, read-out: IC50 against collagen-induced aggregation): 7 µM
CN1C(=O)C(CCCCCCC(=O)O)N(CCC(C)(O)c2ccccc2)C1=O (centres unmarked) [Compound 23] | 60 | – | –
CCCCCCCC(C)(O)CCN1C(=O)N(C)C(=O)C1CCCCCCC(=O)OC (centres unmarked) [Compound 1, 1-(3'-hydroxy-3'-methyl-n-decyl)-3-methyl-5-(6"-methoxycarbonyl-n-hexyl)hydantoin] | 4.5 | A | –
CCCCCCC(C)(O)CCN1C(=O)N(CC)C(=O)C1CCCCCCC(=O)O (centres unmarked) [Compound 16, 1-(3'-hydroxy-3'-methyl-n-nonyl)-3-ethyl-5-(6"-carboxy-n-hexyl)hydantoin] | 5.8 | A | –
CCCCCCC(C)(O)CCN1C(=O)N(C)C(=O)C1CCCCCCC(=O)OCC (centres unmarked) [Compound 3] | 0.4 | A | minimal effective dose [3]: 250 µg/kg; Oral route Activity (class symbol) [3]: A
CCCCCCC(O)CCN1C(=O)N(C)C(=O)C1CCCCCCC(=O)O (centres unmarked) [Compound 24] | 6 | – | –
CCCCCCC(C)(O)CCN1C(=S)N(C)C(=O)C1CCCCCCC(=O)OC (centres unmarked) [Compound 30, 1-(3'-hydroxy-3'-methyl-n-nonyl)-3-methyl-5-(6"-methoxycarbonyl-n-hexyl)-2-thiohydantoin] | – | – | Test Mean Score + S.E. of Mean (gastric damage score) [4]: 0.14 ± 0.14
COC(=O)CCCCCCC1C(=O)N(C)C(=O)N1CCC1(O)CCCCC1 (centres unmarked) [Compound 4] | 220 | – | –
CCCCC(C)C(C)(O)CCN1C(=O)N(C)C(=O)C1CCCCCCC(=O)OC (centres unmarked) [Compound 7] | 3.3 | – | –
CCCCCCC(C)(O)CCN1C(=O)N(C(C)(C)C)C(=O)C1CCCCCCC(=O)O (centres unmarked) [Compound 25] | – | – | Test Mean Score + S.E. of Mean (gastric damage score) [4]: 1.14 ± 0.74
CCCCCCC(C)(O)CCN1C(=O)N(C)C(=O)C1CCCCCCC(=O)O (centres unmarked) [Compound 21, 1-(3'-hydroxy-3'-methyl-n-nonyl)-3-methyl-5-(6"-carboxy-n-hexyl)hydantoin] | 0.6 | A | NOAEL (in vivo; po): ≥ 900000 µg/kg; minimal effective dose [3]: 250 µg/kg; Oral route Activity (class symbol) [3]: A; ED50 [5]: 0.6 µg/kg
CCCCCCC(C)(O)CCN1C(=O)N(CC)C(=O)C1CCCCCCC(=O)OCC (centres unmarked) [Compound 2, 1-(3'-hydroxy-3'-methyl-n-nonyl)-3-ethyl-5-(6"-ethoxycarbonyl-n-hexyl)hydantoin] | 6.8 | A | –
CCCCCCC(C)(O)CCN1C(=S)N(C)C(=O)C1CCCCCCC(=O)OCC (centres unmarked) [Compound 31] | 4.2 | – | Test Mean Score + S.E. of Mean (gastric damage score) [4]: 0.00 ± 0.00
CCCCC(C)C(C)(O)CCN1C(=O)N(C)C(=O)C1CCCCCCC(=O)O (centres unmarked) [Compound 22] | 3.2 | – | Test Mean Score + S.E. of Mean (gastric damage score) [4]: 0.00 ± 0.00
CCCCCCCC(C)(O)CCN1C(=O)N(C)C(=O)C1CCCCCCC(=O)O (centres unmarked) [Compound 17] | 8.5 | A | NOAEL (in vivo; ip): ≥ 100000 µg/kg; NOAEL (in vivo; po): ≥ 300000 µg/kg; Test Mean Score + S.E. of Mean (gastric damage score) [4]: 0.43 ± 0.30; inhibited gastric acid secretion over the dose range [6]: 5000 to 10000 µg/kg; prevention of fibrillation induced by chloroform [7]: prevented fibrillation; inhibition at 100 µM [2]: 34%
